Test results from US20210317141A1, “OXOPYRIDO[1,2-A]PYRIMIDINE COMPOUNDS FOR THE TREATMENT AND PROPHYLAXIS OF BACTERIAL INFECTION” (Hoffmann-La Roche Inc., priority 2018, published 2021).
≈ marks a conversion by molar mass, not a printed value.

What was measured:
[1] = Cytotoxicity assay (HepG2, CellTiter-Blue); format: cell-based; settings: human, HepG2 cells, 3 days treatment
Experimental: The cytotoxicity of compounds of present invention was assessed by HepG2 assay. HepG2 cells (ATCC HB-8065™) were seeded into 96-well plates (1.2×10^4 cells per well) and treated with compounds for 3 days, cell viability was measured at day 3 post compound treatment using the CellTiter-Blue® Cell Viability Assay (Promega, Cat. No. G8082). 20 μL of Cell titer blue buffer were added to each well of the cells, incubated for 3 hours at 37° C., and the fluorescence value was measured by a plate reader (Molecular Device SpectraMax M2). The CC50 value of each compound is plotted with GraphPad Prism using four parameter logistic equation.

E. coli (ATCC 25922) = experiment: Minimal Inhibitory Concentration (MIC) assay; format: cell-based; settings: Escherichia coli, ATCC25922; CAMHB, 20 hours at 35° C.; read-out: MIC (μg/mL) E. coli ATCC 25922
Experimental: The in vitro potency of compounds to inhibit E. coli (ATCC 25922) growth was assessed by MIC (Minimal Inhibitory Concentration) assay. Samples were prepared from 10 mM DMSO stock solutions. After serial 2-fold dilution in DMSO in a master plate (Greiner, Cat No: 651201), 180 μL sterile distilled water was added to 20 μL each aliquot of the samples. Then […], diluted compounds were transferred into a new assay plate (Costar, 3599).
The growth medium […] Mueller Hinton Broth (CAMHB) was prepared by adding the 20 mg per liter CaCl2) and 20 mg per liter MgCl2 into the MHB medium (Jianglai Company, sterilized).
Vials of each of the test microorganisms were maintained frozen in the vapor phase of a liquid nitrogen freezer. Took out the bacteria E. coli ATCC 25922 (KWIKSTIK, 0335K) from liquid nitrogen freezer, thawed it in room temperature, and diluted the bacterial in the CAMHB medium to achieve a final inoculum of 5×10^5 CFU/mL. 90 μL CAMHB with bacteria was dispensed to the assay plate and pipetted 5 times.
Then the assay plates were incubated for 20 hours at 35° C. in ambient air. Following incubation, the MIC (μg/mL), the lowest concentration of drug that inhibits visible growth of the microorganism was read and recorded throw the microscope.

[2] = Lyophilisation solubility assay (LYSA); format: physicochemical; settings: aqueous buffer, thermodynamic from solid; 0.05 M phosphate buffer, pH 6.5; * = detection limit
Experimental: The solubility of compounds of present invention was assessed by LYSA assay. Samples were prepared in duplicate from 10 mM DMSO stock solutions (20 μL) diluted in 30 μL pure DMSO. After evaporation of DMSO with a centrifugal vacuum evaporator, the residue was dissolved in 0.05 M phosphate buffer (150 μL, pH 6.5), stirred for one hour and shook for two hours. After one night, the solution was filtered using a microtiter filter plate. Then the filtrate and its 1/10 dilution were analyzed by HPLC-UV. In addition, a four-point calibration curve was prepared from the 10 mM stock solutions and used for the solubility determination of the compounds.

[3] = test system: K. pneumoniae (ATCC10031); experiment: 50% growth inhibitory concentration (IC50) determination assay, K. pneumoniae; format: cell-based; settings: Klebsiella pneumoniae, growth inhibition, Iso-Sensitest broth, OD 600 nm over 16 h, * = detection limit
Experimental: (§1) The in vitro antimicrobial activity of the compounds against E. coli (BW25113, obtained from Coli Genetic Stock Center, #7636) and K. pneumoniae (ATCC10031) was determined according to the following procedure:
(§2) The assay used a 10-points Iso-Sensitest broth medium to measure quantitatively the in vitro activity of the compounds against E. coli BW25113 and K. pneumoniae ATCC 10031.
(§3) Stock compounds in DMSO were serially two-fold diluted (range from 50 to 0.097 μM final concentration) in 384 wells microtiter plates and inoculated with 49 μL the bacterial suspension in Iso-Sensitest broth medium to have a final cell concentration of ˜5×10^5 CFU/mL in a final volume/well of 50 μL/well. Microtiter plates were incubated at 35±2° C.
(§4) Bacterial cell growth was determined with the measurement of optical density at k=600 nm each 20 minutes over a time course of 16 h.
(§5) Growth inhibition was calculated during the logarithmic growth of the bacterial cells with determination of the concentration inhibiting 50% (IC50) of the growth.

E. coli (BW25113) = experiment: 50% growth inhibitory concentration (IC50) determination assay, E. coli; format: cell-based; settings: Escherichia coli, growth inhibition, Iso-Sensitest broth, OD 600 nm over 16 h, 35±2° C., read-out: IC50 (μM) E. coli K12 BW25113
Experimental: as §1, §2, §3, §4, §5

MIC (E. coli (ATCC 25922)) | solubility thermodynamic [2] | IC50 [3] | IC50 (E. coli (BW25113)) | Structure (SMILES) | CC50 at 3 days [1]
0.017 µg/mL (≈ 0.0336 µM) | 0.063 mg/mL (≈ 124 µM) | ≤ 0.098 µM | 3.58 µM | CNc1cc(F)c(F)c2c1[nH]c1ncc(-c3ccc4ncc(C(=O)O)c(=O)n4c3)c(N3CCOCC3)c12 [Example 1.10, 7-(5,6-Difluoro-8-(methylamino)-4-morpholino-9H-pyrido[2,3-b]indol-3-yl)-4-oxo-4H-pyrido[1,2-a]pyrimidine-3-carboxylic acid] | > 100 µM
0.0909 µg/mL (≈ 0.179 µM) | 0.162 mg/mL (≈ 320 µM) | ≤ 0.098 µM | 2.86 µM | CNc1c(F)c(F)cc2c1[nH]c1ncc(-c3ccc4ncc(C(=O)O)c(=O)n4c3)c(N3CCOCC3)c12 [Example 1.13, 7-(6,7-Difluoro-8-(methylamino)-4-morpholino-9H-pyrido[2,3-b]indol-3-yl)-4-oxo-4H-pyrido[1,2-a]pyrimidine-3-carboxylic acid] | 80.1 µM
0.127 µg/mL (≈ 0.293 µM) | < 0.001 mg/mL | ≤ 0.098 µM | 0.17 µM | CNc1cc(F)cc2c1[nH]c1nc(Oc3cnc(C)nc3)nc(N3C[C@H]4C[C@@H]3C[C@H]4C)c12 [GP-6, reference compound] | 5.6 µM
0.682 µg/mL (≈ 1.38 µM) | 0.054 mg/mL (≈ 109 µM) | 0.114 µM | 2.71 µM | CNc1cc(F)c(F)c2c1[nH]c1ncc(-c3cc(OC)c4ncc(C(=O)O)c(=O)n4c3)c(N(C)C)c12 [Example 1.03, 7-[4-(Dimethylamino)-5,6-difluoro-8-(methylamino)-9H-pyrido[2,3-b]indol-3-yl]-9-methoxy-4-oxo-pyrido[1,2-a]pyrimidine-3-carboxylic acid] | > 100 µM
